In US20100035866A1, “NOVEL SUBSTITUTED-1, 1-DIOXO-BENZO[1,2,4]THIADIAZIN-3ONES, PREPARATION METHOD THEREOF, AND PHARMACEUTICAL COMPOSITION CONTAINING THE SAME” (KOREA RESEARCH INSTITUTE OF CHEMICAL TECHNOLOGY, priority 2006, published 2010):

Columns and labels:
[1] = target: Human serotonin 5-HT6 receptor (Homo sapiens, UniProt P50406); test: [3H]LSD binding assay on cloned 5-HT6 receptor; conditions: IC50 (nM)
5-HT2c = target: T1, 5-HT2c (Homo sapiens, UniProt P28335); test: Radioligand binding, 5-HT receptor family: 5-HT2c ([3H]Mesulergine); conditions: CHO-K1 human recombinant receptor, [3H]Mesulergine 1 nM; read-out: Binding affinity, IC50 (nM), 5-HT2c
T1 construct: purchased Euroscreen/BioSignal Packard Inc
T1 sequence (P28335 33-458): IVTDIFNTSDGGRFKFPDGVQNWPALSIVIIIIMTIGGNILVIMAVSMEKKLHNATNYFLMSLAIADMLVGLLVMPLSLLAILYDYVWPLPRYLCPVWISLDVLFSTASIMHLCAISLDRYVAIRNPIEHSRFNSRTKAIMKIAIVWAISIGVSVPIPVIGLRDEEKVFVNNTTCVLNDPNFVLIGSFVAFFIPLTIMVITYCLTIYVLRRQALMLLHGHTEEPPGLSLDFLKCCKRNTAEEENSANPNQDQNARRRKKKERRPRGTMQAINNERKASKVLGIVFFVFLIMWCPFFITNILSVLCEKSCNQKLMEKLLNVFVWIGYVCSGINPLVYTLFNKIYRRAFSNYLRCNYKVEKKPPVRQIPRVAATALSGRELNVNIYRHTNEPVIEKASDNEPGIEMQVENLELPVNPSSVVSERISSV

5-HT2a = target: T2, 5-HT2a (Homo sapiens, UniProt P28223); test: Radioligand binding, 5-HT receptor family: 5-HT2a ([3H]Ketanserin); conditions: CHO-K1 human recombinant receptor, [3H]Ketanserin 1 nM; read-out: Binding affinity, IC50 (nM), 5-HT2a
T2 construct: purchased Euroscreen/BioSignal Packard Inc

hD2L receptor = target: T3, hD2L receptor (Homo sapiens, UniProt P14416); test: Dopamine receptor family binding: D2 ([3H]spiperone); conditions: [3H]spiperone 1 nM; read-out: Binding affinity, IC50 (nM), D2
T3 construct: purchased BioSignal Packard Inc., Montreal, Canada
Experimental: (§1) 2-2: Binding Assays of Dopamine Receptor Family
(§2) The radioligands used were [^3H]spiperone (for hD2L and hD3 receptors, 1 nM) and [^3H] YM-09151-2 (for hD4.2 receptor, 0.06 nM). Radioligand bindings were performed by the protocols provided by the supplier of receptor membranes (BioSignal Packard Inc., Montreal, Canada). Briefly, the buffer used in D2 or D3 receptor binding assay was 50 mM Tris-HCl (pH 7.4), 10 mM MgCl2, 1 mM EDTA, or 50 mM Tris-HCl (pH 7.4), 5 mM MgCl2 5 mM EDTA, 5 mM KCl, 1.5 mM CaCl2, 120 mM NaCl, respectively. In [^3H] YM-09151-2 receptor binding assays, the buffer containing 50 mM Tris-HCl (pH 7.4), 5 mM MgCl2, 5 mM EDTA, 5 mM KCl and 1.5 mM CaCl2 was used. […] Competition binding studies were carried out with 7-8 concentrations of the test compound run in duplicate tubes, and isotherms from three assays were calculated by computerized nonlinear regression analysis (GraphPad Prism Program, San Diego, […]) to yield median inhibitory concentration (IC50) values.

hD4.2 receptor = target: T4, hD4.2 receptor (Homo sapiens, UniProt P21917, DEL265-296); test: Dopamine receptor family binding: D4 ([3H]YM-09151-2); conditions: [3H]YM-09151-2 0.06 nM; read-out: Binding affinity, IC50 (nM), D4
T4 construct: purchased BioSignal Packard Inc., Montreal, Canada
T4 sequence (P21917 with tags, fused parts or gaps DEL265-296): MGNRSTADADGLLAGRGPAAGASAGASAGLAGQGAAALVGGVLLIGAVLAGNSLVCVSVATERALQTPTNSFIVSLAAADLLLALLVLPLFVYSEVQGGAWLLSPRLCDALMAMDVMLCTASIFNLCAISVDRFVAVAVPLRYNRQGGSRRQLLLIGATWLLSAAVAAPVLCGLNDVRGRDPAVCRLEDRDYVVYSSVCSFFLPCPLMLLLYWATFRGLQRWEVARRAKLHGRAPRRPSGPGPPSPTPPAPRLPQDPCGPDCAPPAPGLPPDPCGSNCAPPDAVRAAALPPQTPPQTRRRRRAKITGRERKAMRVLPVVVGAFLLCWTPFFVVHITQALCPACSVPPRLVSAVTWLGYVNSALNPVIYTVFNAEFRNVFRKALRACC
Experimental: as §1, §2

5-HT7 = target: T5, 5-HT7 (Homo sapiens, UniProt P34969); test: Radioligand binding, 5-HT receptor family: 5-HT7 ([3H]LSD); conditions: CHO-K1 human recombinant receptor, [3H]LSD 3 nM; read-out: Binding affinity, IC50 (nM), 5-HT7
T5 construct: purchased Euroscreen/BioSignal Packard Inc
Experimental: Radioligand bindings were performed according to the test method provided by the supplier of receptor membrane (Euroscreen/BioSignal Packard Inc.). The detailed assay conditions and the results were shown in the following Table 3 and Table 4, respectively.

5-HT1a = target: T6, 5-HT1a (Homo sapiens, UniProt P08908); test: Radioligand binding, 5-HT receptor family: 5-HT1a ([3H]8-OH-DPAT); conditions: CHO-K1 human recombinant receptor, [3H]8-OH-DPAT 0.5 nM; read-out: Binding affinity, IC50 (nM), 5-HT1a
T6 construct: purchased Euroscreen/BioSignal Packard Inc
T6 sequence (P08908 1-422): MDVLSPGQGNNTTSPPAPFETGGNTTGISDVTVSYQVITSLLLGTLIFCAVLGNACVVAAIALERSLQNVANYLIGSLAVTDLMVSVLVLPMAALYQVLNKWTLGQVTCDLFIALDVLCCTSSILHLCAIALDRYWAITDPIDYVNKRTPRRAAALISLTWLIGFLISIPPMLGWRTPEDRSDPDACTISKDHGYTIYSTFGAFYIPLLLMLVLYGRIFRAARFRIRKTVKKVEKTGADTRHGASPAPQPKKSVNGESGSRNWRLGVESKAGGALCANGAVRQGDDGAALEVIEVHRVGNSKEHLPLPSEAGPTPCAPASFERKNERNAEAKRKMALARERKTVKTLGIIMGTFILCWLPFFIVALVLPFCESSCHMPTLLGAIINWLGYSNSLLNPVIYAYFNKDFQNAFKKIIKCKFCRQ

hD3 receptor = target: T7, hD3 receptor (Homo sapiens, UniProt P35462); test: Dopamine receptor family binding: D3 ([3H]spiperone); conditions: [3H]spiperone 1 nM; read-out: Binding affinity, IC50 (nM), D3
T7 construct: purchased BioSignal Packard Inc., Montreal, Canada

D1 = D1 (Homo sapiens, UniProt P21728); test: Dopamine receptor family binding: D1; conditions: read-out: Binding affinity, IC50 (nM), D1
[2] = Binding affinity, 5-HT6, Table 4
[3] = binding affinity to the 5-HT6 receptor, Table 2, 1.87 nM [3H]LSD, cloned human receptor membranes from Sf21 cells, 37° C. 60 min

Chain of Human serotonin 5-HT6 receptor (P50406 whole entry): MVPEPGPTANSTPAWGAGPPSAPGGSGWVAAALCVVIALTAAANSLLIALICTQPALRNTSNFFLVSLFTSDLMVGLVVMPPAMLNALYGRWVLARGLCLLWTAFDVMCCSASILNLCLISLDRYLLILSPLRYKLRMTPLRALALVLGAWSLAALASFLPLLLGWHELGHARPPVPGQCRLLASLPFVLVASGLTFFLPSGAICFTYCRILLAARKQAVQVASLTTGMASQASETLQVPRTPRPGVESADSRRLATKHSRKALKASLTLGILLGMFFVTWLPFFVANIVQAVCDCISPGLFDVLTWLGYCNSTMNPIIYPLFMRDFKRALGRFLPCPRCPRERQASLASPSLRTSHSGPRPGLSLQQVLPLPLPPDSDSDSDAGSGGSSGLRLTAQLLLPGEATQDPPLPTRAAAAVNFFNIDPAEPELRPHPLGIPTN
T5 sequence (P34969 whole entry): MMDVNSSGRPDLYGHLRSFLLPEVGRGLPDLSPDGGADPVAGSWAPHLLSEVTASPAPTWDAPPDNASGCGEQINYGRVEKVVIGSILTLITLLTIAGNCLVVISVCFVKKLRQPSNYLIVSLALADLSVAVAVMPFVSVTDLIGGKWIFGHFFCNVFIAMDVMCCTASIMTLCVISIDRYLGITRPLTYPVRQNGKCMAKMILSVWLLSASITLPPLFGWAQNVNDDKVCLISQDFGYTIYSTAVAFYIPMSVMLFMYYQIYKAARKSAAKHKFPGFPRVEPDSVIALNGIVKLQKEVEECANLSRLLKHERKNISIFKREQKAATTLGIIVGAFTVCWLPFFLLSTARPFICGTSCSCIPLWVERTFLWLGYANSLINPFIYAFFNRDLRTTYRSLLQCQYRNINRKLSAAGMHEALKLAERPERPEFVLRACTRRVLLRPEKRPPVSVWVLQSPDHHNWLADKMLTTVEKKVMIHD
T2 sequence (P28223 whole entry): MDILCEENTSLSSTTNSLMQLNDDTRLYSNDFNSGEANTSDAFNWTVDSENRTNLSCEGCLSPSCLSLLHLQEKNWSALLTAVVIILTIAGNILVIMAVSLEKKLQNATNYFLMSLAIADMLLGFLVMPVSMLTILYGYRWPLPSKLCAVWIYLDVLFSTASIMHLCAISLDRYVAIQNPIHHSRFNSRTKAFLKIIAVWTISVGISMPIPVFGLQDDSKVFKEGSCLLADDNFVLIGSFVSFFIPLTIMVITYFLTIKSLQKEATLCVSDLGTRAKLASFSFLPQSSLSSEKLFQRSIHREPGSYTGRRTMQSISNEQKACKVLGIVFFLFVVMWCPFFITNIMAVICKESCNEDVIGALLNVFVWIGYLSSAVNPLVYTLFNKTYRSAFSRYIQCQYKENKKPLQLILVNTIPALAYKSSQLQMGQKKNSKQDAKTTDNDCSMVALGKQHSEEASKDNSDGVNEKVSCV
T7 sequence (P35462 whole entry): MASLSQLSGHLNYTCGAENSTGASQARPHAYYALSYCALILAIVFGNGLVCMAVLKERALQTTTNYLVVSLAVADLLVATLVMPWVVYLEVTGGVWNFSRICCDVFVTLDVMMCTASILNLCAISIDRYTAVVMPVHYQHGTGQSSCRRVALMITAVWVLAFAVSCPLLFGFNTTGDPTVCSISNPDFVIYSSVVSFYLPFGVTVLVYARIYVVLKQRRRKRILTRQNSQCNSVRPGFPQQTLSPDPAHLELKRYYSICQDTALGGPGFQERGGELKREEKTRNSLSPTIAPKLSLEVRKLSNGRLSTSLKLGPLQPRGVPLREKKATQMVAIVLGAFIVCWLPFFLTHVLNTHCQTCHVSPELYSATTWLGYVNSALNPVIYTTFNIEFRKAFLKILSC
T3 sequence (P14416 whole entry): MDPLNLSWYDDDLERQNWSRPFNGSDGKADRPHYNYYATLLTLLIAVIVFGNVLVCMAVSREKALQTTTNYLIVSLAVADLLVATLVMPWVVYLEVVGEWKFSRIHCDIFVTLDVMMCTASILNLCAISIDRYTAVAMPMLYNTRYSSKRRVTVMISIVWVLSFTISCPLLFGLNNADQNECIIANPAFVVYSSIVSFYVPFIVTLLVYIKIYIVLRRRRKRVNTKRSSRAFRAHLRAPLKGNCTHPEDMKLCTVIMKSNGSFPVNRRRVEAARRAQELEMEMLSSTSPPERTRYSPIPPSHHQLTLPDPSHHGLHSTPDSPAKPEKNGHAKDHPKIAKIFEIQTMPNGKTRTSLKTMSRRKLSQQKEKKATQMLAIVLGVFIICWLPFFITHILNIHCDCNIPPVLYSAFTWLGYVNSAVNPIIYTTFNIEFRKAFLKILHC
Chain of D1 (P21728 whole entry): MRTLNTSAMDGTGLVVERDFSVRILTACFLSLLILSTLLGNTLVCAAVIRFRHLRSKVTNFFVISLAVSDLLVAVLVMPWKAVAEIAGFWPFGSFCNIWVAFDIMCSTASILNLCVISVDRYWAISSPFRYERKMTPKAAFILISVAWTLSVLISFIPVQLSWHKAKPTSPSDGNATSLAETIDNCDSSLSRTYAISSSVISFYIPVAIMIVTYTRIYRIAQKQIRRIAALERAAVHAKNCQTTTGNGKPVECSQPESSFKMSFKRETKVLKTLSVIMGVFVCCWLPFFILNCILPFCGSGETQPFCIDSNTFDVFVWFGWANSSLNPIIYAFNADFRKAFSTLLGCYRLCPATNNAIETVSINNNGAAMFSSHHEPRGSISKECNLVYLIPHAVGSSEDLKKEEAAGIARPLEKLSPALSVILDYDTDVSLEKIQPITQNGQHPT

CN1CCN(c2cc(Cl)cc3c2S(=O)(=O)N(Cc2ccccc2F)C(=O)N3Cc2ccccc2)CC1 [Example 2, 4-Benzyl-6-chloro-2-(2-fluoro-benzyl)-8-(4-methyl-piperazin-1-yl)-1,1-dioxo-1,4-dihydro-2H-1λ^6-benzo[1,2,4]thiadiazin-3-one]
IC50 [1, 2]: 1.9 nM
IC50 [1, 3]: 1.9 nM
IC50 (5-HT2c): 578 nM
IC50 (5-HT2a): 335 nM
IC50 (hD2L receptor): > 10000 nM
IC50 (hD4.2 receptor): > 10000 nM
melting point: 118 to 120 °C
IC50 (5-HT7): > 10000 nM
IC50 (5-HT1a): 2300 nM
IC50 (hD3 receptor): 390 nM

CN1CCN(c2cc(Cl)cc3c2S(=O)(=O)N(Cc2cccc(F)c2)C(=O)N3Cc2ccccc2)CC1 [Example 3, 4-Benzyl-6-chloro-2-(3-fluoro-benzyl)-8-(4-methyl-piperazin-1-yl)-1,1-dioxo-1,4-dihydro-2H-1λ^6-benzo[1,2,4]thiadiazin-3-one]
IC50 [1, 2]: 0.7 nM
IC50 [1, 3]: 0.7 nM
IC50 (5-HT2c): 2190 nM
IC50 (5-HT2a): 846 nM
IC50 (hD2L receptor): > 10000 nM
IC50 (hD4.2 receptor): > 10000 nM
melting point: 85 to 87 °C
IC50 (5-HT7): > 10000 nM
IC50 (5-HT1a): 5980 nM
IC50 (hD3 receptor): 537 nM

CN1CCN(c2cc(Cl)cc3c2S(=O)(=O)N(Cc2ccccc2Cl)C(=O)N3Cc2ccccc2)CC1 [Example 5, 4-Benzyl-6-chloro-2-(2-chloro-benzyl)-8-(4-methyl-piperazin-1-yl)-1,1-dioxo-1,4-dihydro-2H-1λ^6-benzo[1,2,4]thiadiazin-3-one]
IC50 [1, 2]: 1.3 nM
IC50 [1, 3]: 1.3 nM
IC50 (5-HT2c): 240 nM
IC50 (5-HT2a): 396 nM
IC50 (hD2L receptor): 5090 nM
IC50 (hD4.2 receptor): > 10000 nM
melting point: 132 to 133 °C
IC50 (5-HT7): > 10000 nM
IC50 (5-HT1a): 3010 nM
IC50 (hD3 receptor): 93 nM

CN1CCN(c2cc(Cl)cc3c2S(=O)(=O)N(Cc2ccc(Cl)cc2)C(=O)N3Cc2ccccc2)CC1 [Example 7, 4-Benzyl-6-chloro-2-(4-chloro-benzyl)-8-(4-methyl-piperazin-1-yl)-1,1-dioxo-1,4-dihydro-2H-1λ^6-benzo[1,2,4]thiadiazin-3-one]
IC50 [1, 2]: 2.3 nM
IC50 [1, 3]: 2.3 nM
IC50 (5-HT2c): 1540 nM
IC50 (5-HT2a): 488 nM
IC50 (hD2L receptor): > 10000 nM
IC50 (hD4.2 receptor): > 10000 nM
melting point: 99 to 100 °C
IC50 (5-HT7): > 10000 nM
IC50 (5-HT1a): 3910 nM
IC50 (hD3 receptor): 555 nM

COc1ccc(CN2C(=O)N(Cc3ccccc3)c3cc(Cl)cc(N4CCN(C)CC4)c3S2(=O)=O)cc1 [Example 18, 4-Benzyl-6-chloro-2-(4-methoxy-benzyl)-8-(4-methyl-piperazin-1-yl)-1,1-dioxo-1,4-dihydro-2H-1λ^6-benzo[1,2,4]thiadiazin-3-one]
IC50 [1, 2]: 3.6 nM
IC50 [1, 3]: 3.6 nM
IC50 (5-HT2c): 990 nM
IC50 (5-HT2a): 563 nM
IC50 (hD2L receptor): 6580 nM
IC50 (hD4.2 receptor): > 10000 nM
IC50 (5-HT7): > 10000 nM
IC50 (5-HT1a): 3420 nM
IC50 (D1): > 10000 nM
IC50 (hD3 receptor): 1220 nM

C[C@H](c1ccccc1)N1C(=O)N(Cc2ccccc2)c2cc(Cl)cc(N3CCN(C)CC3)c2S1(=O)=O [Example 25, 4-Benzyl-6-chloro-8-(4-methyl-piperazin-1-yl)-1,1-dioxo-2-[(R)-1-phenyl-ethyl]-1,4-dihydro-2H-1λ^6-benzo[1,2,4]thiadiazin-3-one]
IC50 [1, 2]: 1.1 nM
IC50 [1, 3]: 1.1 nM
IC50 (5-HT2c): 691 nM
IC50 (5-HT2a): 350 nM
IC50 (hD2L receptor): 1920 nM
IC50 (hD4.2 receptor): > 10000 nM
IC50 (5-HT7): 8560 nM
IC50 (5-HT1a): > 10000 nM
IC50 (D1): 963 nM
IC50 (hD3 receptor): 265 nM

CCN1C(=O)N(Cc2ccccc2)c2cc(Cl)cc(N3CCN(C)CC3)c2S1(=O)=O [Example 33, 4-Benzyl-6-chloro-2-ethyl-8-(4-methyl-piperazin-1-yl)-1,1-dioxo-1,4-dihydro-2H-1λ^6-benzo[1,2,4]thiadiazin-3-one]
IC50 [1, 2]: 0.3 nM
IC50 [1, 3]: 0.3 nM
IC50 (5-HT2c): 1240 nM
IC50 (5-HT2a): 119 nM
IC50 (hD2L receptor): > 10000 nM
IC50 (hD4.2 receptor): > 10000 nM
melting point: 167 to 169 °C
IC50 (5-HT7): > 10000 nM
IC50 (5-HT1a): 2620 nM
IC50 (hD3 receptor): 3170 nM

CCCN1C(=O)N(Cc2ccccc2)c2cc(Cl)cc(N3CCN(C)CC3)c2S1(=O)=O [Example 34, 4-Benzyl-6-chloro-8-(4-methyl-piperazin-1-yl)-2-propyl-1,1-dioxo-1,4-dihydro-2H-1λ^6-benzo[1,2,4]thiadiazin-3-one]
IC50 [1, 2]: 0.4 nM
IC50 [1, 3]: 0.4 nM
IC50 (5-HT2c): 203 nM
IC50 (5-HT2a): 436 nM
IC50 (hD2L receptor): > 10000 nM
IC50 (hD4.2 receptor): > 10000 nM
melting point: 91 to 93 °C
IC50 (5-HT7): > 10000 nM
IC50 (5-HT1a): 2390 nM
IC50 (hD3 receptor): 1860 nM

CCCCCCCCN1C(=O)N(Cc2ccccc2)c2cc(Cl)cc(N3CCN(C)CC3)c2S1(=O)=O [Example 39, 4-Benzyl-6-chloro-8-(4-methyl-piperazin-1-yl)-2-octyl-1,1-dioxo-1,4-dihydro-2H-1λ^6-benzo[1,2,4]thiadiazin-3-one]
IC50 [1, 2]: 1.8 nM
IC50 [1, 3]: 1.8 nM
IC50 (5-HT2c): 1050 nM
IC50 (5-HT2a): 1320 nM
IC50 (hD2L receptor): > 10000 nM
IC50 (hD4.2 receptor): > 10000 nM
melting point: 88 to 91 °C
IC50 (5-HT7): 3170 nM
IC50 (5-HT1a): 894 nM
IC50 (hD3 receptor): 130 nM

CN1CCN(c2cc(Cl)cc3c2S(=O)(=O)N(Cc2cccc4ccccc24)C(=O)N3Cc2ccccc2)CC1 [Example 41, 4-Benzyl-6-chloro-8-(4-methyl-piperazin-1-yl)-2-naphthalen-1-ylmethyl-1,1-dioxo-1,4-dihydro-2H-1λ^6-benzo[1,2,4]thiadiazin-3-one]
IC50 [1, 2]: 0.8 nM
IC50 [1, 3]: 0.8 nM
IC50 (5-HT2c): 257 nM
IC50 (5-HT2a): 365 nM
IC50 (hD2L receptor): > 10000 nM
IC50 (hD4.2 receptor): > 10000 nM
melting point: 114 to 115 °C
IC50 (5-HT7): > 10000 nM
IC50 (5-HT1a): > 10000 nM
IC50 (hD3 receptor): 420 nM
